Patent US6271238A, “Acetamide derivatives and protease inhibitors” (Nippon Kayaku Kabushiki Kaisha, priority 1996, dated 2001)
Where a name gives a salt, the structure may show the parent alone.

Key:
Type in all cases: biochemical
dog chymase = target: T1, dog chymase (Canis lupus familiaris, UniProt P21842); assay: Inhibitory activity on dog chymase (angiotensin I as substrate); settings: pH 8.0, 37° C., 60 min, read-out: Dog Chymase (IC50: nM), 50% inhibitory concentration
T1 construct: 60 g dog heart was finely divided by scissors and a scalpel; from tissue; host or cells: dog heart
T1 sequence (P21842 22-249): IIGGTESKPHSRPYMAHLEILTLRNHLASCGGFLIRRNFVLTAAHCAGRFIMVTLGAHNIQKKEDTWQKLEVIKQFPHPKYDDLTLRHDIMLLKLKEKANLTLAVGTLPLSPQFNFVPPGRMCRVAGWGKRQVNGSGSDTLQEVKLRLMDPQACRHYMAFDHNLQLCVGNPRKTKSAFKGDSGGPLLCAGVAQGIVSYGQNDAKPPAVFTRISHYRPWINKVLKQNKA
Source text: It is known that chymase is present in tissues of various animals, and its isolation and purification methods are described in Anal. Biochem., 137, 449 (1984) and FEBS Letters, 323, 119 (1993). In the present invention, chymase was purified by the methods described in these literatures, and the present compounds were examined for inhibitory activity on chymase, inhibitory action on activation of mast cells and eosinophils, and pharmacological action in animals. Hereinafter, specific methods are described. (c) Preparation of dog chymase 60 g dog heart was finely divided by scissors and a scalpel, suspended in 0.1 M phosphate buffer (pH 8.0), and disrupted by a Polytron homogenizer for 5 minutes to prepare a crude chymase enzyme solution. It was centrifuged at 22000×g for 15 minutes, and the precipitates were used as a chymase enzyme fraction. […] An active fraction decomposing the synthetic chymase substrate was recovered and concentrated and this product was used as a purified dog chymase in the following activity measurement. (D) Measurement of inhibitory activity on chymase (b) Measurement using angiotensin I as substrate The inhibitory activity on the human chymase and dog chymase was measured using angiotensin I (Peptide Kenkyusho) as substrate besides the above synthetic substrate. […] After the end of the reaction, produced angiotensin II was immediately measured by high performance liquid chromatography to determine the activity of the chymase to calculate 50% inhibitory concentration (IC50: nM). The test was conducted several times. Chymase was prepared for each test in the manner described above. The compounds examined were compounds prepared in the above-described examples. […] 50% Inhibitory concentration (IC50: nM) of each compound toward rat chymase, dog […] human […] Substrate: Succinyl leucyl leucyl valyl tyrosyl methylcoumarylamide (for rat […] angiotensin I (for human and dog chymase)

human chymase = target: T2, human chymase (Homo sapiens, UniProt P23946); assay: Inhibitory activity on human chymase (angiotensin I as substrate); settings: for IC50: substrate angiotensin I, pH 8.0, 37° C., 60 min, read-out: Human Chymase (IC50: nM), 50% inhibitory concentration
T2 construct: 60 g human tonsils were finely divided by scissors and a scalpel; from tissue; host or cells: human tonsils
T2 sequence (P23946 22-247): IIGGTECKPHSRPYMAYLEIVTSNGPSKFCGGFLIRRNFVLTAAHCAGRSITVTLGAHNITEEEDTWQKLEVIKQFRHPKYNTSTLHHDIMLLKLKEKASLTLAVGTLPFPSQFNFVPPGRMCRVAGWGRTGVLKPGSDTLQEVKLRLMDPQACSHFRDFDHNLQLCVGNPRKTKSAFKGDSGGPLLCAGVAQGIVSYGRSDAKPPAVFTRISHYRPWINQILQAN
Source text: It is known that chymase is present in tissues of various animals, and its isolation and purification methods are described in Anal. Biochem., 137, 449 (1984) and FEBS Letters, 323, 119 (1993). In the present invention, chymase was purified by the methods described in these literatures, and the present compounds were examined for inhibitory activity on chymase, inhibitory action on activation of mast cells and eosinophils, and pharmacological action in animals. Hereinafter, specific methods are described. 50 g rat tongue was finely divided by scissors and a scalpel, suspended in 0.1 M phosphate buffer (pH 8.0), and disrupted by a Polytron homogenizer for 5 minutes to prepare a crude chymase enzyme solution. […] The supernatant was applied to an octyl Sepharose 4B column (40×100 mm) previously equilibrated with 0.1 M phosphate buffer (pH 8.0) containing 2 M sodium chloride and 5% ammonium sulfate, and the protein was eluted with a linear concentration gradient of from 2 M to 0 M sodium chloride. An active fraction decomposing succinyl leucyl leucyl valyl tyrosyl methylcumarylamide (hereinafter referred to as the synthetic chymase substrate, a product of Peptide Kenkyusho) was recovered and concentrated and this product was used as a purified rat chymase in the following activity measurement. (B) Preparation of human chymase 60 g human tonsils were finely divided by scissors and a scalpel, suspended in 0.1 M phosphate buffer (pH 8.0), and A-disrupted by a Polytron homogenizer for 5 minutes to prepare a crude chymase enzyme solution. It was centrifuged at 22000×g for 30 minutes, and the precipitates were used as a chymase enzyme fraction. […] The supernatant was concentrated by an ultrafiltration membrane, then applied to […] column (6.0×300 mm), and eluted with 0.1 M phosphate buffer (pH 8.0). An active fraction decomposing the synthetic chymase substrate was recovered and concentrated and this product was used as a purified human chymase in the following activity measurement. (D) Measurement of inhibitory activity on chymase (b) Measurement using angiotensin I as substrate The inhibitory activity on the human chymase and dog chymase was measured using angiotensin I (Peptide Kenkyusho) as substrate besides the above synthetic substrate. […] After the end of the reaction, produced angiotensin II was immediately measured by high performance liquid chromatography to determine the activity of the chymase to calculate 50% inhibitory concentration (IC50: nM). The test was conducted several times. Chymase was prepared for each test in the manner described above. The compounds examined were compounds prepared in the above-described examples. […] 50% Inhibitory concentration (IC50: nM) of each compound toward rat chymase, dog […] human […] Substrate: Succinyl leucyl leucyl valyl tyrosyl methylcoumarylamide (for rat […] angiotensin I (for human and dog chymase)

Human factor Xa = target: T3, Human factor Xa (Homo sapiens, UniProt P00742); assay: Inhibitory activity on proteases other than chymase: human factor Xa
T3 construct: human factor Xa
T3 sequence (P00742 235-488 limits assumed): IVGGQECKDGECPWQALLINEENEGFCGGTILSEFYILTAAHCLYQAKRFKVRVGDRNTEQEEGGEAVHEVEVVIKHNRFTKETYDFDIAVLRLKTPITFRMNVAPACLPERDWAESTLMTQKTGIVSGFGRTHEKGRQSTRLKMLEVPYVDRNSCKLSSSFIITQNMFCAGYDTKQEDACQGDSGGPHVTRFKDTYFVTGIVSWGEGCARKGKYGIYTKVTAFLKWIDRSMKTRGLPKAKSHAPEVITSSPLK
T3 sequence (P00742 41-179 partner limits assumed): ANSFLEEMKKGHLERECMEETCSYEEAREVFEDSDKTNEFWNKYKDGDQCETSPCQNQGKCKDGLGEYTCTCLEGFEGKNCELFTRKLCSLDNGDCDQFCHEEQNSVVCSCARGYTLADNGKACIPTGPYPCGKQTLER
Description: (E) Measurement of inhibitory activity on proteases other than chymase
The inhibitory activity of the present compounds on human elastase, human cathepsin G, human urokinase, human thrombin, human plasmin, and human factor Xa was determined using their corresponding synthetic substrates in the same manner as for chymase. All the above proteases were those commercially available from Boehringer Mannheim or purified by a combination of known methods. The synthetic substrates were those produced by Peptide Renkyusho. The synthetic substrates for the respective proteases are as follows.
Human factor Xa Phenylmethyloxycarbonyl pyridyl glycyl arginyl
The test was conducted several times. Chymase was prepared for each test in the manner described above. The compounds examined were compounds prepared in the above-described examples.

Row | SMILES | IC50 (dog chymase) [nM] | IC50 (human chymase) [nM] | IC50 (Human factor Xa) [µM] | inhibitory activity on human chymase, in words (human chymase)
1 | CCCCC(=O)C(=O)C(Cc1ccccc1)NC(=O)Cn1c(-c2ccccc2)ncc(N)c1=O (stereo not shown) [Compound 44] | 16 | 146 |  | 
2 | Nc1cnc(-c2ccccc2)n(CC(=O)NC(Cc2ccccc2)C(=O)C(=O)CCCc2ccccc2)c1=O (stereo not shown) [Compound 40] | 13 | 190 | > 10 | 
3 | CC(=O)C(=O)C(Cc1cccc(F)c1)NC(=O)Cn1c(-c2ccccc2)ncc(N)c1=O (stereo not shown) [Compound 52, 2-(5-Amino-6-oxo-2-phenyl-1,6-dihydropyrimidine-1-yl)-N-{1-(3-fluorophenyl)methyl-2,3-dioxo}butylacetamide] | 27 | 120 | > 10 | 
4 | CC(C)(C)OC(=O)Nc1cnc(-c2ccccc2)n(CC(=O)NC(Cc2ccccc2)C(=O)C(=O)CCCOc2ccccn2)c1=O (stereo not shown) [Compound 74, 2-(5-t-Butyloxycarbonylamino-6-oxo-2-phenyl-1,6-dihydropyrimidine-1-yl)-N-{2,3-dioxo-6-(2-pyridyloxy)-1-phenylmethyl}hexylacetamide] | 0.92 | 11 | > 10 | strong inhibitory activity on human chymase
5 | CC(=O)Nc1cnc(-c2ccccc2)n(CC(=O)NC(Cc2ccccc2)C(=O)C(=O)CCCOc2ccccn2)c1=O (stereo not shown) [Compound 80, 2-(5-Acetylamino-6-oxo-2-phenyl-1,6-dihydropyrimidine1-yl)-N-{2,3-dioxo-1-phenylmethyl-6-(-2-pyridyloxy)}hexyl-acetamide] | 0.35 | 0.9 | > 10 | strong inhibitory activity on human chymase
6 | CCOC(=O)CCCC(=O)C(=O)C(Cc1cccc(F)c1)NC(=O)Cn1c(-c2ccccc2)ncc(N)c1=O (stereo not shown) [Compound 54] | 3.6 | 36 |  | strong inhibitory activity on human chymase
7 | O=C(Cn1c(-c2ccccc2)ncc(NS(=O)(=O)NCc2ccccc2)c1=O)NC(Cc1ccccc1)C(=O)C(=O)CCCOc1ccccn1 (stereo not shown) [Compound 82, 2-(5-Benzylaminosulfonylamino-6-oxo-2-phenyl-1,6-dihydropyrimidine-1-yl)-N-{2,3-dioxo-1-phenylmethyl-6-(2-pyridyloxy)}hexylacetamide] | 0.14 | 0.74 | > 10 | strong inhibitory activity on human chymase
8 | O=CNc1cnc(-c2ccccc2)n(CC(=O)NC(Cc2ccccc2)C(=O)C(=O)CCCOc2ccccn2)c1=O (stereo not shown) [Compound 79, 2-(5-Formylamino-6-oxo-2-phenyl-1,6-dihydropyrimidine-1-yl)-N-{2,3-dioxo-1-phenylmethyl-6-(2-pyridyloxy)}hexylacetamide] | 0.32 | 2.4 | > 10 | strong inhibitory activity on human chymase
9 | Nc1cnc(-c2ccccc2)n(CC(=O)NC(Cc2ccccc2)C(=O)C(=O)CCCn2ccccc2=O)c1=O (stereo not shown) [Compound 73, 2-(5-Amino-6-oxo-2-phenyl-1,6-dihydropyrimidine-1-yl)-N-{2,3-dioxo-1-phenylmethyl-6-(2-oxo-1,2-dihydropyridine-1-yl)}hexylacetamide hydrochloride] | 2.9 | 46 |  | strong inhibitory activity on human chymase
10 | CC(C)(C)OC(=O)Nc1cnc(-c2ccccc2)n(CC(=O)NC(Cc2ccccc2)C(=O)C(=O)CCCn2ccccc2=O)c1=O (stereo not shown) [Compound 72, 2-(5-t-Butyloxycarbonylamino-6-oxo-2-phenyl-1,6-dihydropyrimidine-1-yl)-N-{2,3-dioxo-6-(2-oxo-1,2-dihydropyridine-1-yl)-1-phenylmethyl}hexylacetamide] | 1.6 | 90 | > 10 | strong inhibitory activity on human chymase
